In ChEMBL document CHEMBL2034968, “Discovery of novel urea-based hepatitis C protease inhibitors with high potency against protease-inhibitor-resistant mutants” (J Med Chem, 2012):

Columns and labels:
[1] = Inhibition of HCV 1a protease 1a domain; set-up: species or system Hepacivirus hominis
Hepatitis C virus [2] = assay: Antiviral activity against Hepatitis C virus subtype 1b by stable replicon assay; assay type: functional, organism-based, Hepacivirus hominis; conditions: genotype 1b
Hepatitis C virus [3] = assay: Antiviral activity against Hepatitis C virus subtype 1a by stable replicon assay; assay type: functional, organism-based, Hepacivirus hominis
Hepatitis C virus [4] = assay: Antiviral activity against Hepatitis C virus subtype 1b harboring protease D168V mutant by transient replicon assay; assay type: functional, organism-based, Hepacivirus hominis; conditions: genotype 1b
Hepatitis C virus [5] = assay: Antiviral activity against Hepatitis C virus subtype 1b harboring protease D168A mutant by transient replicon assay; assay type: functional, organism-based, Hepacivirus hominis; conditions: genotype 1b
Hepatitis C virus [6] = assay: Antiviral activity against Hepatitis C virus subtype 1b harboring protease A156V mutant by transient replicon assay; assay type: functional, organism-based, Hepacivirus hominis; conditions: genotype 1b
Hepatitis C virus [7] = assay: Antiviral activity against Hepatitis C virus subtype 1b harboring protease A156T mutant by transient replicon assay; assay type: functional, organism-based, Hepacivirus hominis; conditions: genotype 1b
Hepatitis C virus [8] = assay: Antiviral activity against Hepatitis C virus subtype 1b harboring protease A156S mutant by transient replicon assay; assay type: functional, organism-based, Hepacivirus hominis; conditions: genotype 1b
Hepatitis C virus [9] = assay: Antiviral activity against wild type Hepatitis C virus subtype 1b by transient replicon assay; assay type: functional, organism-based, Hepacivirus hominis; conditions: genotype 1b
Hepatitis C virus [10] = assay: Antiviral activity against Hepatitis C virus subtype 1b harboring protease R155K mutant by transient replicon assay; assay type: functional, organism-based, Hepacivirus hominis; conditions: genotype 1b

Row | Structure (SMILES) | IC50 [1] | EC50 (Hepatitis C virus [2]) | EC50 (Hepatitis C virus [3]) | EC50 (Hepatitis C virus [4]) | EC50 (Hepatitis C virus [5]) | EC50 (Hepatitis C virus [6]) | EC50 (Hepatitis C virus [7]) | EC50 (Hepatitis C virus [8]) | EC50 (Hepatitis C virus [9]) | EC50 (Hepatitis C virus [10])
1 | COc1ccc2c(O[C@@H]3C[C@H]4C(=O)N[C@]5(C(=O)NS(=O)(=O)C6CC6)C[C@H]5/C=C\CCCCC[C@H](NC(=O)NCc5ccc6c(c5)B(O)OC6)C(=O)N4C3)cc(-c3nc(C(C)C)cs3)nc2c1C | 2 nM | 0.8 nM | 3.4 nM | 144 nM | 249 nM | 9 nM | 7 nM | 0.2 nM | 0.9 nM | 49 nM
2 | COc1ccc2c(O[C@@H]3C[C@H]4C(=O)N[C@]5(C(=O)NS(=O)(=O)C6CC6)C[C@H]5/C=C\CCCCC[C@H](NC(=O)NCc5ccc(CO)c(O)c5)C(=O)N4C3)cc(-c3nc(C(C)C)cs3)nc2c1C | 0.5 nM | 1.1 nM | 15.5 nM | – | – | – | – | – | – | –
3 | COc1ccc2c(O[C@@H]3C[C@H]4C(=O)N[C@]5(C(=O)NS(=O)(=O)C6CC6)C[C@H]5/C=C\CCCCC[C@H](NC(N)=O)C(=O)N4C3)cc(-c3nc(C(C)C)cs3)nc2c1C | 2 nM | 0.5 nM | 1.8 nM | 2260 nM | 873 nM | 16 nM | 6 nM | – | 0.4 nM | 66 nM
4 | COc1ccc2c(O[C@@H]3C[C@H]4C(=O)N[C@]5(C(=O)NS(=O)(=O)C6CC6)C[C@H]5/C=C\CCCCC[C@H](NC(=O)N(C)C)C(=O)N4C3)cc(-c3nc(C(C)C)cs3)nc2c1C | 2 nM | 0.1 nM | 0.3 nM | 57 nM | 36 nM | 5 nM | 1 nM | – | 0.04 nM | 10 nM
5 | CCN(CC)C(=O)N[C@H]1CCCCC/C=C\[C@@H]2C[C@@]2(C(=O)NS(=O)(=O)C2CC2)NC(=O)[C@@H]2C[C@@H](Oc3cc(-c4nc(C(C)C)cs4)nc4c(C)c(OC)ccc34)CN2C1=O | 1 nM | 0.7 nM | 0.9 nM | 131 nM | 56 nM | 8 nM | 2 nM | 0.5 nM | 0.1 nM | 15 nM
6 | COc1ccc2c(O[C@@H]3C[C@H]4C(=O)N[C@]5(C(=O)NS(=O)(=O)C6CC6)C[C@H]5/C=C\CCCCC[C@H](NC(=O)N5CCOCC5)C(=O)N4C3)cc(-c3nc(C(C)C)cs3)nc2c1C | 2 nM | 0.5 nM | 0.3 nM | 33 nM | 17 nM | 2 nM | 0.2 nM | 0.03 nM | 0.01 nM | 4 nM
7 | COc1ccc2c(O[C@@H]3C[C@H]4C(=O)N[C@]5(C(=O)NS(=O)(=O)C6CC6)C[C@H]5/C=C\CCCCC[C@H](NC(=O)N5CCCC5)C(=O)N4C3)cc(-c3nc(C(C)C)cs3)nc2c1C | 4 nM | 0.4 nM | 0.4 nM | 200 nM | 86 nM | 9 nM | 2 nM | 0.2 nM | 0.1 nM | 15 nM
8 | COc1ccc2c(O[C@@H]3C[C@H]4C(=O)N[C@]5(C(=O)NS(=O)(=O)C6CC6)C[C@H]5/C=C\CCCCC[C@H](NC(=O)N5CCC(C)(C)C5)C(=O)N4C3)cc(-c3nc(C(C)C)cs3)nc2c1C | 2 nM | 0.5 nM | 0.6 nM | 138 nM | 28 nM | 11 nM | 2 nM | – | 0.1 nM | 17 nM
9 | COc1ccc2c(O[C@@H]3C[C@H]4C(=O)N[C@]5(C(=O)NS(=O)(=O)C6CC6)C[C@H]5/C=C\CCCCC[C@H](NC(=O)N5CCC(O)CC5)C(=O)N4C3)cc(-c3nc(C(C)C)cs3)nc2c1C | 2 nM | 0.3 nM | 0.6 nM | 154 nM | 42 nM | 9 nM | 2 nM | – | 0.1 nM | 7 nM
10 | COc1ccc2c(O[C@@H]3C[C@H]4C(=O)N[C@]5(C(=O)NS(=O)(=O)C6CC6)C[C@H]5/C=C\CCCCC[C@H](NC(=O)N5CCC(CO)CC5)C(=O)N4C3)cc(-c3nc(C(C)C)cs3)nc2c1C | 1 nM | 0.3 nM | 0.7 nM | 141 nM | 47 nM | 9 nM | 2 nM | – | 0.1 nM | 14 nM
11 | COc1ccc2c(O[C@@H]3C[C@H]4C(=O)N[C@]5(C(=O)NS(=O)(=O)C6CC6)C[C@H]5/C=C\CCCCC[C@H](NC(=O)N5CCC(CC(N)=O)CC5)C(=O)N4C3)cc(-c3nc(C(C)C)cs3)nc2c1C | 2 nM | 1.5 nM | 5.6 nM | – | 431 nM | 10 nM | 3 nM | 0.1 nM | 0.2 nM | 65 nM
12 | COc1ccc2c(O[C@@H]3C[C@H]4C(=O)N[C@]5(C(=O)NS(=O)(=O)C6CC6)C[C@H]5/C=C\CCCCC[C@H](NC(=O)N5CCC(CC(=O)O)CC5)C(=O)N4C3)cc(-c3nc(C(C)C)cs3)nc2c1C | 0.9 nM | 0.8 nM | 2.2 nM | 161 nM | 7 nM | 3 nM | 1 nM | 0.2 nM | 0.1 nM | 21 nM
13 | COc1ccc2c(O[C@@H]3C[C@H]4C(=O)N[C@]5(C(=O)NS(=O)(=O)C6CC6)C[C@H]5/C=C\CCCCC[C@H](NC(=O)N5CCC(c6ccccc6)CC5)C(=O)N4C3)cc(-c3nc(C(C)C)cs3)nc2c1C | 7 nM | 0.9 nM | 1.6 nM | 386 nM | 182 nM | 30 nM | 5 nM | – | 0.2 nM | 69 nM
14 | COc1ccc2c(O[C@@H]3C[C@H]4C(=O)N[C@]5(C(=O)NS(=O)(=O)C6CC6)C[C@H]5/C=C\CCCCC[C@H](NC(=O)N5CCC(N6CCCC6)CC5)C(=O)N4C3)cc(-c3nc(C(C)C)cs3)nc2c1C | 2 nM | 0.5 nM | 0.6 nM | – | 1620 nM | 98 nM | 12 nM | 1.9 nM | 0.5 nM | 102 nM
15 | COc1ccc2c(O[C@@H]3C[C@H]4C(=O)N[C@]5(C(=O)NS(=O)(=O)C6CC6)C[C@H]5/C=C\CCCCC[C@H](NC(=O)N5CCN(C6CCCC6)CC5)C(=O)N4C3)cc(-c3nc(C(C)C)cs3)nc2c1C | 2 nM | 0.3 nM | 0.5 nM | 477 nM | 169 nM | 32 nM | 5 nM | – | 0.1 nM | 60 nM
16 | CC(C)(C)NC(=O)N[C@H](C(=O)N1C[C@H]2[C@@H]([C@H]1C(=O)NC(CC1CCC1)C(=O)C(N)=O)C2(C)C)C(C)(C)C (some centres undefined) [BOCEPREVIR] | – | – | – | 40 nM | – | – | 12000 nM | – | 400 nM | 700 nM
17 | CC[C@@H]1C[C@]1(NC(=O)[C@@H]1C[C@@H]2CN1C(=O)[C@H](C(C)(C)C)NC(=O)OCC(C)(C)CCCCc1cccc3c1CN(C3)C(=O)O2)C(=O)NS(=O)(=O)C1CC1 [VANIPREVIR] | – | – | – | – | – | – | – | – | 1.6 nM | –
